# “And” between values parts separate entries of the source, which are not always exact repeats. Identical values can stand only once. Inconclusive results and toxic doses are left out.
# System: P388 leukemia ip, CD2F1 mice, survival T/C
# Experiment: NCI In Vivo Anticancer Drug Screen. Data for tumor model P388 Leukemia (intraperitoneal) in CD2F1 (CDF1) mice
# Conditions: endpoint: median survival time, higher = longer survival
# How it was run: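 Mice carrying the transplanted tumor received test compound or vehicle. Survival was recorded in each group, and the value is the treated-group measurement divided by that of the vehicle-treated control group.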
# [1] = dose: 50.0 mg/kg/injection, schedule: Q01DX009 (ip), vehicle: saline
# [2] = dose: 100.0 mg/kg/injection, schedule: Q01DX009 (ip), vehicle: saline
# [3] = dose: 200.0 mg/kg/injection, schedule: Q01DX009 (ip), vehicle: saline
# [4] = dose: 12.5 mg/kg/injection, schedule: Q01DX009 (ip), vehicle: saline
# [5] = dose: 25.0 mg/kg/injection, schedule: Q01DX009 (ip), vehicle: saline
# [6] = dose: 50.0 mg/kg/injection, schedule: Q01DX009 (ip), vehicle: saline with Tween-80
# [7] = dose: 100.0 mg/kg/injection, schedule: Q01DX009 (ip), vehicle: saline with Tween-80
# [8] = dose: 60.0 mg/kg/injection, schedule: Q01DX005 (ip), vehicle: saline
# [9] = dose: 120.0 mg/kg/injection, schedule: Q01DX005 (ip), vehicle: saline
# [10] = dose: 240.0 mg/kg/injection, schedule: Q01DX005 (ip), vehicle: saline
# [11] = dose: 60.0 mg/kg/injection, schedule: Q01DX005 (ip), vehicle: saline with Tween-80
# [12] = dose: 120.0 mg/kg/injection, schedule: Q01DX005 (ip), vehicle: saline with Tween-80
# [13] = dose: 240.0 mg/kg/injection, schedule: Q01DX005 (ip), vehicle: saline with Tween-80
# [14] = dose: 6.25 mg/kg/injection, schedule: Q01DX009 (ip), vehicle: saline
# [15] = dose: 50.0 mg/kg/injection, schedule: Q01DX005 (ip), vehicle: saline with Tween-80
# [16] = dose: 100.0 mg/kg/injection, schedule: Q01DX005 (ip), vehicle: saline with Tween-80
# [17] = dose: 200.0 mg/kg/injection, schedule: Q01DX005 (ip), vehicle: saline with Tween-80
structure (smiles),measurement,setting,value
C[n+]1ccc(CCNC2CCC(N=NC3CCC([N+](=O)[O-])CC3)CC2)cc1 (stereo unspecified),T/C,[1],105 % of control and 92 % of control
same,T/C,[2],108 % of control
same,T/C,[3],102 % of control and 118 % of control
CC(CN1CCOCC1)(CN1CCOCC1)[N+](=O)[O-],T/C,[4],111 % of control
same,T/C,[5],110 % of control
same,T/C,[1],107 % of control and 111 % of control
same,T/C,[2],115 % of control
O=C1C=C2SCCN2C(=O)C1,T/C,"dose: 25.0 mg/kg/injection, schedule: Q01DX009 (ip), vehicle: saline with Tween-80",101 % of control
same,T/C,[6],92 % of control
same,T/C,[7],97 % of control
same,T/C,"dose: 200.0 mg/kg/injection, schedule: Q01DX009 (ip), vehicle: saline with Tween-80",99 % of control
CC(=O)OCC1OC(n2nc(/C=C/c3ccco3)c(=O)n(-c3ccccc3)c2=S)C(OC(C)=O)C(OC(C)=O)C1OC(C)=O (stereo unspecified),T/C,"dose: 100.0 mg/kg/injection, schedule: Q04DX003 (ip), vehicle: saline with Tween-80",107 % of control
same,T/C,"dose: 200.0 mg/kg/injection, schedule: Q04DX003 (ip), vehicle: saline with Tween-80",100 % of control
same,T/C,"dose: 400.0 mg/kg/injection, schedule: Q04DX003 (ip), vehicle: saline with Tween-80",101 % of control
CC(NC(CCCN=C(N)N)C(=O)O)C(=O)O (stereo unspecified),T/C,[8],92 % of control
same,T/C,[9],100 % of control
same,T/C,[10],100 % of control
ClCCCCOC1CCCCO1 (stereo unspecified),T/C,[11],107 % of control
same,T/C,[12],100 % of control
same,T/C,[13],105 % of control
C[CH2][Sn]([CH2]C)([O]C(C)=O)[O][Sn]([CH2]C)([CH2]C)[O]C(C)=O,T/C,[14],155 % of control
C(=N/c1ccccn1)/c1ccc2c(c1)OCO2,T/C,"dose: 50.0 mg/kg/injection, schedule: Q01DX009 (ip), vehicle: Klucel (hydroxypropylcellulose) (HPC)",100 % of control
same,T/C,"dose: 100.0 mg/kg/injection, schedule: Q01DX009 (ip), vehicle: Klucel (hydroxypropylcellulose) (HPC)",105 % of control
same,T/C,"dose: 200.0 mg/kg/injection, schedule: Q01DX009 (ip), vehicle: Klucel (hydroxypropylcellulose) (HPC)",101 % of control
Cc1nc(Br)c(Br)n1Cc1ccccc1,T/C,[11],99 % of control
same,T/C,[12],99 % of control
same,T/C,[13],105 % of control
CC1(C)CC2(C)OC2C2(C1)N=NC(=O)O2 (stereo unspecified),T/C,"dose: 50.0 mg/kg/injection, schedule: Q01DX009 (ip), vehicle: saline + alcohol",90 % of control
same,T/C,[6],89 % of control
same,T/C,"dose: 100.0 mg/kg/injection, schedule: Q01DX009 (ip), vehicle: saline + alcohol",100 % of control
same,T/C,[7],87 % of control
same,T/C,"dose: 200.0 mg/kg/injection, schedule: Q01DX009 (ip), vehicle: saline + alcohol",93 % of control
same,T/C,"dose: 400.0 mg/kg/injection, schedule: Q01DX009 (ip), vehicle: saline + alcohol",108 % of control
O=C1CCSC(=S)N1c1ccc(F)cc1F,T/C,[14],92 % of control
same,T/C,[4],94 % of control
same,T/C,[5],91 % of control
same,T/C,[2],96 % of control
same,T/C,[3],90 % of control
same,T/C,"dose: 200.0 mg/kg/injection, schedule: Q01DX009 (ip), vehicle: suspension in saline",92 % of control
O=C(CCCN1CCC2(CC1)C(=O)NCN2c1ccc(F)cc1)c1ccc(F)cc1,T/C,[15],103 % of control
same,T/C,[16],95 % of control
same,T/C,[17],94 % of control
CC(C)[C@](O)(C(=O)OC1CCN2CCC(CO)C12)[C@H](C)O (stereo partly specified),T/C,"dose: 11.5 mg/kg/injection, schedule: Q01DX009 (ip), vehicle: saline",111 % of control
same,T/C,"dose: 23.0 mg/kg/injection, schedule: Q01DX009 (ip), vehicle: saline",107 % of control
same,T/C,"dose: 46.0 mg/kg/injection, schedule: Q01DX009 (ip), vehicle: saline",105 % of control
same,T/C,"dose: 92.0 mg/kg/injection, schedule: Q01DX009 (ip), vehicle: saline",98 % of control
CNC[C@@H](O)c1ccc(O)c(O)c1,T/C,"dose: 0.78 mg/kg/injection, schedule: Q01DX009 (ip), vehicle: suspension in saline",97 % of control
same,T/C,"dose: 1.56 mg/kg/injection, schedule: Q01DX009 (ip), vehicle: suspension in saline",104 % of control
same,T/C,"dose: 3.12 mg/kg/injection, schedule: Q01DX009 (ip), vehicle: suspension in saline",104 % of control
CC1(C)N=C(N)N=C(N)N1c1ccc(CN)cc1,T/C,[8],110 % of control
same,T/C,[9],103 % of control
same,T/C,[10],106 % of control
CN(C)c1ccc(/C=N\N=C/c2ccc(N(C)C)cc2)cc1,T/C,"dose: 60.0 mg/kg/injection, schedule: Q01DX005 (ip), vehicle: Klucel (hydroxypropylcellulose) (HPC)",88 % of control
same,T/C,"dose: 120.0 mg/kg/injection, schedule: Q01DX005 (ip), vehicle: Klucel (hydroxypropylcellulose) (HPC)",87 % of control
same,T/C,"dose: 240.0 mg/kg/injection, schedule: Q01DX005 (ip), vehicle: Klucel (hydroxypropylcellulose) (HPC)",86 % of control
O=C1c2ccc([N+](=O)[O-])cc2NC(O)c2cccn21 (stereo unspecified),T/C,"dose: 0.1 mg/kg/injection, schedule: Q01DX005 (ip), vehicle: water",96 % of control
same,T/C,"dose: 0.2 mg/kg/injection, schedule: Q01DX005 (ip), vehicle: water",96 % of control
same,T/C,"dose: 0.4 mg/kg/injection, schedule: Q01DX005 (ip), vehicle: water",91 % of control
same,T/C,"dose: 0.8 mg/kg/injection, schedule: Q01DX005 (ip), vehicle: water",96 % of control
same,T/C,"dose: 1.6 mg/kg/injection, schedule: Q01DX005 (ip), vehicle: water",96 % of control
same,T/C,"dose: 5.0 mg/kg/injection, schedule: Q01DX005 (ip), vehicle: distilled water + Tween-80",99 % of control
same,T/C,"dose: 10.0 mg/kg/injection, schedule: Q01DX005 (ip), vehicle: distilled water + Tween-80",95 % of control
same,T/C,"dose: 20.0 mg/kg/injection, schedule: Q01DX005 (ip), vehicle: distilled water + Tween-80",95 % of control
same,T/C,"dose: 40.0 mg/kg/injection, schedule: Q01DX005 (ip), vehicle: distilled water + Tween-80",91 % of control
same,T/C,"dose: 80.0 mg/kg/injection, schedule: Q01DX005 (ip), vehicle: distilled water + Tween-80",91 % of control
COc1cc2c(cc1OC)C13CC[N+]4([O-])CC5=CCOC6CC(=O)N2C1C6C5CC34 (stereo unspecified),T/C,"dose: 15.0 mg/kg/injection, schedule: Q01DX005 (ip), vehicle: saline",107 % of control
same,T/C,"dose: 30.0 mg/kg/injection, schedule: Q01DX005 (ip), vehicle: saline",108 % of control
same,T/C,[8],106 % of control and 107 % of control
same,T/C,[9],100 % of control
same,T/C,[10],97 % of control
CCN(CCNc1ccc(C)c2sc3cc(Cl)ccc3c(=O)c12)CC(C)(C)O,T/C,"dose: 12.5 mg/kg/injection, schedule: Q01DX005 (ip), vehicle: saline with Tween-80",95 % of control
same,T/C,"dose: 25.0 mg/kg/injection, schedule: Q01DX005 (ip), vehicle: saline with Tween-80",92 % of control
same,T/C,[15],88 % of control and 97 % of control
same,T/C,[17],95 % of control
CC(=O)N1C(CO)C(O)C(O)C1n1cnc2c(N)ncnc21 (stereo unspecified),T/C,"dose: 50.0 mg/kg/injection, schedule: Q01DX005 (ip), vehicle: Klucel (hydroxypropylcellulose) (HPC)",95 % of control
same,T/C,"dose: 100.0 mg/kg/injection, schedule: Q01DX005 (ip), vehicle: Klucel (hydroxypropylcellulose) (HPC)",100 % of control
same,T/C,"dose: 200.0 mg/kg/injection, schedule: Q01DX005 (ip), vehicle: Klucel (hydroxypropylcellulose) (HPC)",100 % of control
same,T/C,"dose: 300.0 mg/kg/injection, schedule: Q01DX005 (ip), vehicle: Klucel (hydroxypropylcellulose) (HPC)",100 % of control
CCCCCCCN(CCCCCCC)CC(O)c1ccc2cc(Cl)c3ccccc3c2c1 (stereo unspecified),T/C,[15],107 % of control
same,T/C,[16],112 % of control
same,T/C,[17],105 % of control
Cc1cn(CCCCCOc2c3ccoc3cc3oc(=O)ccc23)c(=O)[nH]c1=O,T/C,"dose: 100.0 mg/kg/injection, schedule: Q01DX001 (ip), vehicle: Klucel (hydroxypropylcellulose) (HPC)",92 % of control
same,T/C,"dose: 200.0 mg/kg/injection, schedule: Q01DX001 (ip), vehicle: Klucel (hydroxypropylcellulose) (HPC)",90 % of control
same,T/C,"dose: 400.0 mg/kg/injection, schedule: Q01DX001 (ip), vehicle: Klucel (hydroxypropylcellulose) (HPC)",87 % of control
CCCCSc1n[nH]c(C2CCC(=O)N2Cc2ccccc2)n1 (stereo unspecified),T/C,[11],100 % of control
same,T/C,[12],93 % of control
same,T/C,[13],91 % of control
CN(C)CCOc1ccc2c(c1)C1=NN(c3ccccc3)C(=O)CC1CO2 (stereo unspecified),T/C,[11],103 % of control
same,T/C,[12],99 % of control
Cc1ccc(/C=C/C(=N/Nc2ccccc2)C(C)CN(C)C)cc1 (stereo unspecified),T/C,[11],100 % of control
same,T/C,[12],89 % of control

# Reference: PubChem BioAssay AID330 (DTP/NCI, 2004)
